Test system: Clostridium ljungdahlii
Test: Example 1 redone at shaking speed 100 min-1 (Example 1b)
Format: cell-based
Procedure: For the production, anaerobic carbonate buffer (adjusted with KOH 1.4 g/L) was used. The only addition to the buffer was L-cysteine HCl at different concentrations.
For identical autotrophic productions, 500 mL septum bottles were filled with 100 mL carbonate buffer and shaken at 150 min^−1 in an open shaking water bath shaker Innova 3100 by New Brunswick Scientific. The reactions were carried out at 37° C. with manual control of the pH. Once the pH dropped below 5.5, KOH was replenished from a stock solution of 140 g/L. In the present experiments the pH in both reactors were checked at the following points in time 50.3 h, 73.3 h and corrected by the addition of each 1.4 g/L KOH manually.
The reactors were inoculated with a synthesis gas mixture of 67% H2 and 33% CO2 and pressure of 0.8 bar applied. To replenish the depleted gas, the gas above the reactors was replaced once a day and again the pressure brought to 0.8 bars.
The reactor was started by seeding autotrophic grown cells at an OD of 0.2. The preculture was carried out continuously in a 1 L bottle with 500 mL complex medium. The complex medium consisting of 1 g/lNH4Cl, 0.1 g/l KCl, 0.2 g/l MgSO4 ×7 H2O, 0.8 g/l NaCl, 0.1 g/l KH2PO4, 20 mg/l CaCl2 ×2 H2O, 20 g/l MES, 1 g/l yeast extract, 0.4 g/L L-Cysteine-HC1, 20 mg/l nitrilotriacetic acid, 10 mg/l MnSO4×H2O, 8 mg/l (NH4)2Fe(SO4)2×6 H2O, 2 mg/l CoCl2×6 H2O, 2 mg/l ZnSO4 33 7 H2O, 0.2 mg/l CuCl 2 33 2 H2O, 0.2 mg/l Na2MoO4×2 H2O, 0.2 mg/l NiCl2×6 H2O, 0.2 mg/l Na2SeO4, 0.2 mg/l Na2WO4×2 H2O, 20 μg/l d-Biotin, 20 μg/l folic acid, 100 μg/l pyridoxine HCl, 50μg/l thiamine-HCl×H2O, 50 μg l of riboflavin, 50 μg/l nicotinic acid, 50 μg/l Ca-pantothenate, 1 μg/l vitamin B12, 50μg/l p-aminobenzoate, 50 μg/l lipoic acid. The culture was then gassed continuously with synthesis gas (67% H2, 33% CO2) at a flow rate of 3 l/h over a filter with pore size 10 microns. The cells were in late log phase growth at an OD of 0.37 and where anaerobically centrifuged (4500 rpm, 4300 g, 20° C., 10 min). The supernatant was discarded and the cell pellet resuspended in 10 ml carbonate buffer. The prepared cells were then used to inoculate the actual tests.
When sampling each 5 ml sample was removed for determination of OD600, pH and the product spectrum. The determination of the product concentration was performed using quantitative 1H-NMR spectroscopy. As an internal quantification standard sodium trimethylsilylpropionate was used (T(M)SP).
The example 1 above was redone with only a difference in the shaking speed on the septum bottles for autotrophic productions. The shaking speed used was 100 min^−1.
A reporting error in example 1 was noticed where the results of cysteine for reactor 1 and 2 were switched.

[1] = reactor 1, 0.1 g/L L-Cysteine-HCl, 100 min-1, 0.0 h
[2] = reactor 1, 0.1 g/L L-Cysteine-HCl, 100 min-1, 24.5 h
[3] = reactor 1, 0.1 g/L L-Cysteine-HCl, 100 min-1, 50.3 h
[4] = reactor 1, 0.1 g/L L-Cysteine-HCl, 100 min-1, 73.3 h
[5] = reactor 1, 0.1 g/L L-Cysteine-HCl, 100 min-1, 92.3 h
[6] = reactor 2, 0.4 g/L L-Cysteine-HCl, 100 min-1, 0.0 h
[7] = reactor 2, 0.4 g/L L-Cysteine-HCl, 100 min-1, 24.5 h
[8] = reactor 2, 0.4 g/L L-Cysteine-HCl, 100 min-1, 50.3 h
[9] = reactor 2, 0.4 g/L L-Cysteine-HCl, 100 min-1, 73.3 h
[10] = reactor 2, 0.4 g/L L-Cysteine-HCl, 100 min-1, 92.3 h

Which “Acetate (NMR)” value [1] does the source give for `Cl.N[C@@H](CS)C(=O)O` [L-Cysteine-HCl, L-cysteine hydrochloride] here?
The value was 13 mg/L.

And the “Ethanol (NMR)” value [1]?
The value was 6 mg/L.

What about the OD600 [1] of the same molecule?
The OD600 was 0.25.

And the “Acetate (NMR)” value [2]?
The value was 1418 mg/L.

And the “Ethanol (NMR)” value [2]?
The value was 19 mg/L.

And the OD600 [2]?
Its OD600 is 0.25.

What about the Δp [2] of the same molecule?
The Δp was 0.6 bar.

What about the “Acetate (NMR)” value [3] of the same molecule?
Its value is 2556 mg/L.

What about the “Ethanol (NMR)” value [3] of the same molecule?
The value was 130 mg/L.

And the OD600 [3]?
The OD600 was 0.30.

What about the Δp [3] of the same molecule?
The Δp was 0.6 bar.

And the OD600 [4]?
The OD600 was 0.30.

What about the Δp [4] of the same molecule?
Its Δp is 0.6 bar.

What about the “Acetate (NMR)” value [5] of the same molecule?
Its value is 6960 mg/L.

What about the “Ethanol (NMR)” value [5] of the same molecule?
Its value is 321 mg/L.

What about the OD600 [5] of the same molecule?
Its OD600 is 0.26.

What about the Δp [5] of the same molecule?
The Δp was 0.4 bar.

And the “Acetate (NMR)” value [6]?
Its value is 15 mg/L.

And the “Ethanol (NMR)” value [6]?
The value was 8 mg/L.

What about the OD600 [6] of the same molecule?
Its OD600 is 0.24.

What about the “Acetate (NMR)” value [7] of the same molecule?
Its value is 2331 mg/L.

And the “Ethanol (NMR)” value [7]?
The value was 27 mg/L.

What about the OD600 [7] of the same molecule?
Its OD600 is 0.23.

What about the Δp [7] of the same molecule?
The Δp was 0.6 bar.

And the “Acetate (NMR)” value [8]?
The value was 3197 mg/L.

And the “Ethanol (NMR)” value [8]?
The value was 128 mg/L.

And the OD600 [8]?
The OD600 was 0.26.

And the Δp [8]?
Its Δp is 0.5 bar.

What about the OD600 [9] of the same molecule?
The OD600 was 0.22.

What about the Δp [9] of the same molecule?
The Δp was 0.3 bar.

And the “Acetate (NMR)” value [10]?
The value was 5067 mg/L.

What about the “Ethanol (NMR)” value [10] of the same molecule?
The value was 150 mg/L.

What about the OD600 [10] of the same molecule?
The OD600 was 0.22.

And the Δp [10]?
The Δp was 0.3 bar.
